The target of test [1] is T1, olfactory receptor OR5K1 (Homo sapiens, UniProt Q8NHB7).
T1 construct: expressed in transfected cells; host or cells: HEK293
T1 sequence (Q8NHB7 1-308): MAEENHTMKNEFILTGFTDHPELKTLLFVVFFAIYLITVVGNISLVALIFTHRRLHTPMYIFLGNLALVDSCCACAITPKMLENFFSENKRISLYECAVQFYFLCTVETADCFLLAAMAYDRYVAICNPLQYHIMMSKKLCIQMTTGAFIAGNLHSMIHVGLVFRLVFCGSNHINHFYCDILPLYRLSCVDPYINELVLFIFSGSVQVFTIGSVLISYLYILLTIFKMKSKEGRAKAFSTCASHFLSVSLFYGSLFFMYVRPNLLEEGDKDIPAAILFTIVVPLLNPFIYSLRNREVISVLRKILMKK
Briefly: Antagonist assay: inhibition of OR5K1 response to 2,6-dimethylpyrazine (luciferase reporter). Format: cell-based. As to conditions: HEK293 cells expressing OR5K1; 2,6-dimethylpyrazine 1 mM + test substance 300 μM (cytotoxic flavoring agents re-evaluated at 333 μM + 100 μM); read-out: Inhibition rate (receptor response-inhibiting rate). On the procedure: The receptor response-inhibiting rate of a test substance was calculated as follows. The receptor activity (X−Y) by stimulation with 2,6-dimethylpyrazine alone was determined by subtracting the luminescence value (Y) in cells to which the receptor was introduced but were not stimulated with 2,6-dimethylpyrazine from the luminescence value (X) derived from firefly luciferase induced by stimulation with 2,6-dimethylpyrazine alone. Similarly, the receptor activity (Z−Y) in the presence of a test substance was determined by subtracting the luminescence value (Y) in cells not stimulated with 2,6-dimethylpyrazine from the luminescence value (Z) stimulated with a mixture of 2,6-dimethylpyrazine and the test substance. The reduction rate of the receptor activity (Z−Y) in the presence of a test substance to the receptor activity (X−Y) by stimulation with 2,6-dimethylpyrazine alone was calculated by the following computation expression: Inhibition rate (%)={1−(Z−Y)/(X−Y)}×100, to determine the receptor response-inhibiting rate of the test substance. In the measurement, multiple independent experiments were performed in duplicate, and the average of each experiment was used.
On the technique in general: A reporter such as luciferase makes a cellular process visible.

The nature of test [2]: Sensory test of reduction of the odor of 2,6-dimethylpyrazine in dough. Conditions: flavoring agent 0.5 μL added to dough 0.5 g containing 1% 2,6-dimethylpyrazine; four panelists; rating 1 to 5; FIG. 3. On the procedure: A flavoring agent (0.5 μL) was added to dough (0.5 g) containing 2,6-dimethylpyrazine (1%, and the odor thereof was evaluated by comparing the strength of odor of 2,6-dimethylpyrazine in dough not applied with flavor by the flavoring agent. The sensory evaluation test was performed by four panelists. In the evaluation, a case where a strong odor of 2,6-dimethylpyrazine was smelled was rated as 1, and a case where the odor of 2,6-dimethylpyrazine was not smelled at all was rated as 5.

Consider 40 molecules from patent publication US9057090B2, “Method of identifying an agent for inhibiting odor of pyrazine derivatives” (Kao Corporation, priority 2012, dated 2015).

By inhibition is commonly meant the drop in the measured response relative to a control, in per cent. For the molecule `CC(=CCC1CC=C(C)C1(C)C)CO` (stereo not shown) [Sandalmysore Core, 2-methyl-4-(2,2,3-trimethyl-3-cyclopenten-1-yl)-2-buten-1-ol], in test [1], the inhibition at 300 µM is at least 50%. The “odor of 2,6-dimethylpyrazine in sensory test” value (from here on “odor of 2,6-dimethylpyrazine”) in test [2] is reported as “inhibited”. As to `Cc1ccc(C(C)C)c(O)c1` [thymol, 5-methyl-2-(1-methylethyl)-phenol], in test [1], the inhibition at 300 µM was at least 75%. `CC(C)=CCCC(C)=CC=O` [citral, 3,7-dimethyl-2,6-octadienal]: the inhibition at 300 µM in test [1] was at least 75%. Take `CC(C=O)c1ccccc1` (stereo not shown) [hydratropic aldehyde, 2-phenyl-propionaldehyde]: in test [1], the inhibition at 300 µM is at least 50%. For `CC1=CC(C)C(C=O)CC1` (stereo not shown) [triplal, 2,4-dimethyl-3-cyclohexene-1-carboxyaldehyde], the “odor of 2,6-dimethylpyrazine” value in test [2] is given as “inhibited”. Turning to `O=C(OCCc1ccccc1)c1ccccc1O` [phenylethyl salicylate], the inhibition at 300 µM in test [1] was at least 75%. For `CC(C=O)Cc1ccc2c(c1)OCO2` (stereo not drawn) [helional, α-methyl-3,4-methylenedioxyhydrocinnamic aldehyde], in test [2], the “odor of 2,6-dimethylpyrazine” value was “inhibited”. Turning to `CC(=O)C1=C(C)C2CC3(C1)C(C)CCC3C2(C)C` (stereo not shown) [acetyl cedrene, 1-(2,3,4,7,8,8a-hexahydro-3,6,8,8-tetramethyl-1H-3a,7-methanoazulen-5-yl)-ethanone], in test [1], the inhibition at 300 µM was at least 50%. For `C=CCCC(=O)C1=CCCC(C)(C)C1` [Dynascone, 1-(5,5-dimethyl-1-cyclohexen-1-yl)-4-penten-1-one], the inhibition at 300 µM in test [1] is at least 40%. Moreover, the “odor of 2,6-dimethylpyrazine” value in test [2] is listed as “inhibited”. As to “ethyl-(3aα,4α,7α,3aα)-octahydro-4,7-methano-3aH-indene-3a-carboxylate [Fruitate]”, the “odor of 2,6-dimethylpyrazine” value in test [2] is on record as “inhibited”.

On to `CCC(O)COC1CCCCC1C(C)(C)C` (stereo not shown) [Amber Core, 1-(2-tert-butylcyclohexyloxy)-2-butanol], for which, in test [1], the inhibition at 300 µM is at least 75%. Also, the “odor of 2,6-dimethylpyrazine” value in test [2] is recorded as “inhibited”. Regarding `CCCCCCC(C=O)=Cc1ccccc1` [α-hexylcinnamic aldehyde], the “odor of 2,6-dimethylpyrazine” value in test [2] was “inhibited”. As to `CC1C/C=C/CCCCCCCCCC(=O)C1` (stereo not shown) [δ-muscenone, (5E)-3-methylcyclopenta-5-decen-1-one], in test [2], the “odor of 2,6-dimethylpyrazine” value was “inhibited”.

As for `CC(=O)c1ccc2ccccc2c1` [β-methyl naphthyl ketone], the “odor of 2,6-dimethylpyrazine” value in test [2] was “inhibited”. `O=CC=Cc1ccccc1` [cinnamaldehyde]: the inhibition at 300 µM in test [1] is at least 50%.

As for `O=C1CCCCCCCCCCCC(=O)OCCO1` [ethylene brassylate, 1,4-dioxacyclo-heptadecane-5,17-dione], in test [1], the inhibition at 300 µM is at least 40%. Take `C=C(OCC)C1C(C)(C)CC(=O)CC1(C)C` [kephalis, 4-(1-ethoxyvinyl)-3,3,5,5-tetramethyl cyclohexanone]: the inhibition at 300 µM in test [1] was at least 50%. The same measure, in the same setting: then `CC=Cc1ccc(OCc2ccccc2)c(OC)c1` [benzyl isoeugenol, 2-methoxy-1-(phenylmethoxy)-4-(1-propenyl)-benzene], with at least 50%; and `C=CCc1ccc(O)c(OC)c1` [eugenol, 1-allyl-3-methoxy-4-hydroxybenzene], with at least 40%; and `CC(=O)C1(C)CC2=C(CCCC2(C)C)CC1C` (stereo not shown) [Iso E Super, 7-acetyl-1,2,3,4,5,6,7,8-octahydro-1,1,6,7-tetramethyl-naphthalene], with at least 75%. On to `CC(=O)O[C@]1(C)CC[C@@]23C[C@@H]1C(C)(C)[C@@H]2CC[C@H]3C` [cedryl acetate], for which the inhibition at 300 µM in test [1] was at least 50%. As to `CC(C)=CCCC(C)CCOCC=O` (stereo not shown) [citronellyloxyacetaldehyde, 6,10-dimethyl-3-oxa-9-undecenal], the inhibition at 300 µM in test [1] was at least 40%. Still for that read-out and setting: then `CCCCCCOC(=O)c1ccccc1O` [hexyl salicylate], with at least 40%.

Regarding `CC(=O)c1cc(C(C)(C)C)cc2c1C=CC2(C)C` [celestolide, 6-tert-butyl-1,1-dimethylinden-4-yl methyl ketone], the inhibition at 300 µM in test [1] was at least 40%. Regarding `CCC=C(C)C(O)CCCCC` (stereo not shown) [undecavertol, 4-methyl-3-decen-5-ol], the inhibition at 300 µM in test [1] is at least 75%. Also, in test [2], the “odor of 2,6-dimethylpyrazine” value is “inhibited”. For `CCCCCC1=C(C)CCC1=O` [dihydrojasmon, 2-pentyl-3-methyl-2-cyclopenten-1-one], the inhibition at 300 µM in test [1] is at least 40%. Turning to `CC(C=O)Cc1ccc(C(C)(C)C)cc1` (stereo not drawn) [lilial, α-methyl-β-(p-tert-butylphenyl)-propionaldehyde], the inhibition at 300 µM in test [1] is at least 50%. For the same molecule, in test [2], the “odor of 2,6-dimethylpyrazine” value is reported as “inhibited”.

`CC(=O)C=CC1=C(C)CCCC1(C)C` [β-ionone, 4-(2,6,6-trimethyl-1-cyclohexen-1-yl)-3-buten-2-one]: the “odor of 2,6-dimethylpyrazine” value in test [2] is recorded as “inhibited”. On the same count and under the same terms, under `CC(=O)/C(C)=C/C1C(C)=CCCC1(C)C` (stereo not drawn) [α-isomethyl ionone] stands “inhibited”.

As for `CC=CC(=O)C1=C(C)C=CCC1(C)C` [damascenone, 1-(2,6,6-trimethyl-1,3-cyclohexadien-1-yl)-2-buten-1-one], the inhibition at 300 µM in test [1] was at least 40%. Also, in test [2], the “odor of 2,6-dimethylpyrazine” value is recorded as “inhibited”. For the molecule `CCCCCCCC1CCC(=O)O1` (stereo not shown) [γ-undecalactone], the “odor of 2,6-dimethylpyrazine” value in test [2] is listed as “inhibited”. `CC1(C)CCCC2(C)C1CCC1(C)OCCC12` (stereo not shown) [Ambrotech, dodecahydro-3a,6,6,9a-tetramethyl-naphtho[2,1-b]furan]: the inhibition at 300 µM in test [1] was at least 50%.

Turning to `CC(C)=CCC/C(C)=C/CO` [geraniol, (E)-3,7-dimethyl-2,6-octadien-1-ol], the inhibition at 300 µM in test [1] was at least 40%. Still for that read-out and setting: under `CCC(=CCC1CC=C(C)C1(C)C)CO` (stereo not shown) [bacdanol, 2-ethyl-4-(2,2,3-trimethyl-3-cyclopenten-1-yl)-2-buten-1-ol] stands at least 75%; under `CC(C)CCCC(C)CCO` (stereo not shown) [tetrahydrogeraniol, 3,7-dimethyl-1-octanol], at least 50%. Still for that read-out and setting: under `CC(C=O)C1CCCCC1` (stereo not shown) [Pollenal II, 2-cyclohexylpropanal] stands at least 50%; under `CC(=O)c1c(C)c([N+](=O)[O-])c(C(C)(C)C)c([N+](=O)[O-])c1C` [musk ketone, 4-tert-butyl-2,6-dimethyl-3,5-dinitro-acetophenone], at least 40%; under `CC(C)=CCCC(C)CC=O` (stereo not shown) [citronellal, 3,7-dimethyl-6-octenal], at least 50%. On the same count and under the same terms, then `CC(C)[C@H]1CC[C@@H](CO)CC1` [mayol, cis-4-isopropyl-cyclohexylmethanol], with at least 40%; and `CC(=O)c1cc2c(cc1C)C(C)(C)C(C)CC2(C)C` (stereo not shown) [Tonalid, 1-(5,6,7,8-tetrahydro-3,5,5,6,8,8-hexamethyl-2-naphthalenyl)-ethanone], with at least 75%.
